Laboratory results reported in patent US20030162759A1, “Aldosterone blocker therapy to prevent or treat inflammation-related disorders” (priority 2000, published 2003).
Where “and” joins values, the source holds several entries; their conditions need not be identical. Identical values can stand only once. Entries after “also recorded” stand apart in the source; their conditions may differ.

Tests used:
Type in all cases: in vivo, rat
[1] = test system: Monocyte Chemoattractant Protein-1 (MCP-1); assay: Assay C: MCP-1 relative mRNA expression in heart (TaqMan); details: for MCP1, Mean / MCP1: mRNA; for MCP1, Mean: group mean; for MCP1: individual rats; for MCP-1 mRNA expression in myocardium: time course 7, 14, 30 days, eplerenone 100 mg/kg/day
Experimental: The procedure of Assay B was expanded upon in a further study. […] Myocardial tissue from animals in each treatment group was examined after 7, 14, or 30 days of treatment.
(§1) Potassium chloride supplementation was added to the saline solution in order to prevent the potential hypokalemia associated with aldosterone excess.
(§2) At the time of the surgery, an Alzet 2002 osmotic minipump (Alza Corp., Palo Alto, Calif.) containing either vehicle (9% ethanol/87% propylene glycol/4% dH2O) or 1.0 mg/mL d-aldosterone (Sigma Chemical, St. Louis, Mo.) was inserted subcutaneously at the nape of the neck. Aldosterone was administered at a dose of 0.75 g/hour. […] Animals were sacrificed from each group (n=8-13) after 7, 14, or 30 days of treatment.
The fluorogenic 5′-nuclease assay (TaqMan PCR) using Applied Biosystems' 7700 Sequence Detection System (Applied Biosystems, Foster City, Calif.) allowed for real time detection/quantitation of a specific gene by monitoring the increase in fluorescence of a gene-specific, dye-labeled oligonucleotide probe. Probes for target and reference genes were labeled at the 5′-end with a 6-carboxyfluorescein (6FAM) reporter dye and at the 3′-end with a 6-carboxy-N,N,N′,N′-tetramethylrhodamine (TAMRA) quencher dye. When the probe was annealed to the target gene, fluorescence of 6FAM was prevented by the close proximity of TAMRA. The exonuclease activity of Taq polymerase released the dyes from the oligonucleotide probe by displacing the probe from the target sequence resulting in fluorescence excitation in direct proportion to the amount of target message present. Data analysis was performed using the Sequence Detection System software from Applied Biosystems.
All primers and probes were designed using Primer Express software supplied with the 7700 Sequence Detection System and synthesized by Applied Biosystems. Standard curves using 5-fold dilutions of total RNA (from 200 ng to 320 pg) were performed to determine the efficiency of each primer/probe set in the TaqMan reaction prior to the analysis of the experimental samples. Primer/probe sets were designed from known sequences of rat genes to be analyzed. All target gene values were normalized to a reference gene, constitutively expressed cyclophilin. Primer/probe set sequences can be found in Table 8.
RNA was extracted from frozen (−80° C.) rat heart tissue using the Totally RNA Isolation Kit (Ambion, Inc., Austin, Tex.). Tissue was crushed using a stainless steel mortar and pestle, which had been chilled to −80° C. and transferred to a dounce homogenizer (Kontes, Vineland, N.J.) containing 3-10 mL cold denaturation buffer. Tissue was homogenized and transferred to a sterile, 15 mL polypropylene centrifuge tube. An equal volume of phenol:chloroform:isoamyl alcohol (25:24:1) was added, samples were shaken vigorously for 1 min, and incubated on ice for at least 15 min. Samples were centrifuged for 30 min at 10,000 g. The aqueous phase was removed, 1/10 volume of a sodium acetate solution (3.0 M NaOAc pH 4.5) was added, samples were shaken or inverted for 10 seconds, and acid-phenol (premixed with isoamyl alcohol):chloroform (5:1, Ambion, Inc.) was added at an volume equivalent to the starting sample volume. Samples were shaken vigorously for 1 min, followed by a 15-min incubation on ice, and centrifuged for 30 min at 10,000 g. The aqueous phase removed and placed in a clean polypropylene tube. An equal volume of isopropanol (Sigma, St. Louis, Mo.) was added and the samples were mixed and incubated overnight at −20° C. The samples were centrifuged for 30 min at 10,000 g, the supernatant was removed and the RNA pellet was resuspended in DNAse/RNAse-free water. Samples were frozen at −80° C. for at least 2 hours, thawed on wet ice, and diluted for quantitation.

osteopontin = assay: Assay B aldosterone infusion model: osteopontin immunohistochemistry of hearts; details: aldosterone infused rats; eplerenone 100 mpk p.o.
Experimental: Assay B: In vivo Aldosterone Infusion Model Male Sprague Dawley rats (n=39; BW=250 g) […] Uni-nephrectomy performed during implantation of mini-pumps 2. Aldosterone ([…], sc via aizet minipump) 2. […] 1. […] Sacrifice after 4 weeks. Determination of osteopontin and COX-2 was performed by quantitative RT-PCR (Taqman). Osteopontin was also identified in the heart by immunohistochemistry.

[2] = test system: angiotensin II infused, captopril treated stroke prone spontaneously hypertensive rats; assay: Angiotensin II infused, captopril treated stroke prone spontaneously hypertensive rats: urinary protein excretion and renal injury (FIGS. 35-36)
[3] = test system: osteopontin, ED-1, CD-3, ICAM-1, VCAM-1; assay: Assay C: immunohistochemistry of myocardial tissue (osteopontin, ED-1, CD-3, ICAM-1, VCAM-1); details: aldosterone+salt treated rats; eplerenone 100 mg/kg/day
Experimental: The procedure of Assay B was expanded upon in a further study. […] Myocardial tissue from animals in each treatment group was examined after 7, 14, or 30 days of treatment. […] Lesions were preceded by the expression and progressive upregulation of proinflammatory molecules.
as §1, §2
Five m sections were deparaffinized in xylene (two, 5-10 min incubations) and rehydrated by 3 min incubations in ethanol as follows: two incubations in 100% ethanol followed by two incubations in 95% alcohol and one incubation in 70% alcohol. Once hydrated, sections were rinsed in tap water for 1 min and distilled water for 1 min. Endogenous peroxide activity was blocked by placing slides in 3.0% H2O2 for 15 min followed by a 5 min rinse in distilled water. Slides were processed for antigen retrieval using citric acid, pH 6.0. […]

Compound	MCP1, Mean ([1]; 14 days of treatment)	MCP1, Mean ([1]; 30 days of treatment)	MCP1 ([1]; 7 days of treatment, listed as Aldosterone + salt)	MCP1 ([1]; 14 days of treatment, listed as Aldosterone + salt)	MCP1 ([1]; 30 days of treatment, listed as Aldosterone + salt)	MCP-1 mRNA expression in myocardium [1]	Osteopontin expression in the heart (immunostaining) (osteopontin)	MCP1, Mean ([1]; 7 days of treatment)	MCP1 ([1]; 7 days of treatment, listed as Eplerenone + aldosterone + salt)	MCP1 ([1]; 14 days of treatment, listed as Eplerenone + aldosterone + salt)	MCP1 ([1]; 30 days of treatment, listed as Eplerenone + aldosterone + salt)	Urinary protein excretion ([2]; captopril treated SHRSP (FIG. 35))	Histopathological scores for renal injury ([2]; captopril treated SHRSP (FIG. 36))	Staining in myocardial tissue for marker proteins (immunohistochemistry) [3]
C[C@]12CCC(=O)C=C1CC[C@@H]1[C@@H]2[C@@H](O)C[C@]2(C=O)[C@@H](C(=O)CO)CC[C@@H]12 [aldosterone]	2.76 AU	4.54 AU	2.40 AU	2.50 AU	2.30 AU	significantly increased	osteopontin was clearly identified in the media of coronary arteries	–	–	–	–	–	–	–
COC(=O)[C@@H]1CC2=CC(=O)CC[C@]2(C)[C@@]23O[C@@H]2C[C@@]2(C)[C@@H](CC[C@@]24CCC(=O)O4)[C@H]13 [eplerenone, Pregn-4-ene-7,21-dicarboxylic acid, 9,11-epoxy-17-hydroxy-3-oxo-, γ-lactone, methyl ester, (7α, 11α, 17β) -]	–	2.29 AU	–	–	–	significantly reduced; also recorded: inhibition of early time-course expression of myocardial MCP-1	prevention by eplerenone of induction of osteopontin expression; also recorded: prevented the expression of osteopontin	1.56 AU	1.60 AU and 0.85 AU and 0.83 AU and 0.67 AU	1.60 AU and 1.20 AU	1.70 AU and 2.10 AU	inhibition of increased urinary protein excretion	reduction in histopathological scores for renal injury	markedly blunted the aldosterone+salt treatment induced staining
